How the values were obtained:
SK-MEL-28 = assay: panel of 60 human tumor cell lines, growth inhibition (Melanoma); settings: SK-MEL-28
SK-MEL-2 = assay: as above; settings: SK-MEL-2
LOX IMVI = assay: as above
OVCAR-3 = assay: panel of 60 human tumor cell lines, growth inhibition (Ovarian Cancer); settings: OVCAR-3
UACC-257 = assay: panel of 60 human tumor cell lines, growth inhibition (Melanoma); settings: UACC-257
U251 = assay: panel of 60 human tumor cell lines, growth inhibition (CNS Cancer); settings: U251
NCI-H322M = assay: panel of 60 human tumor cell lines, growth inhibition (Non-Small Cell Lung Cancer)
K-562 = assay: panel of 60 human tumor cell lines, growth inhibition (Leukemia); settings: K-562
A549/ATCC = assay: panel of 60 human tumor cell lines, growth inhibition (Non-Small Cell Lung Cancer); settings: A549/ATCC

C=C1C(=O)O[C@H]2[C@H]1CC/C(COC(=O)N1CCC(F)(F)CC1)=C\CC[C@@]1(C)O[C@@H]21 [JVM 2-66]
GI50 (SK-MEL-28): 2.51 µM | TGI (SK-MEL-28): 7.42E−6 | Percent Growth (SK-MEL-28; Log10 Concentration −4.0): −84% | Percent Growth (SK-MEL-28; Log10 Concentration −5.0): −14% | Percent Growth (SK-MEL-28; Log10 Concentration −6.0): 92% | Percent Growth (SK-MEL-28; Log10 Concentration −7.0): 94% | Percent Growth (SK-MEL-28; Log10 Concentration −8.0): 102% | GI50 (SK-MEL-2): 2.93 µM | TGI (SK-MEL-2): 8.95E−6 | Percent Growth (SK-MEL-2; Log10 Concentration −4.0): −84% | Percent Growth (SK-MEL-2; Log10 Concentration −5.0): −5% | Percent Growth (SK-MEL-2; Log10 Concentration −6.0): 98% | Percent Growth (SK-MEL-2; Log10 Concentration −7.0): 99% | Percent Growth (SK-MEL-2; Log10 Concentration −8.0): 100% | GI50 (LOX IMVI): 2.23 µM | TGI (LOX IMVI): 5.77E−6 | Percent Growth (LOX IMVI; Log10 Concentration −4.0): −89% | Percent Growth (LOX IMVI; Log10 Concentration −5.0): −29% | Percent Growth (LOX IMVI; Log10 Concentration −6.0): 92% | Percent Growth (LOX IMVI; Log10 Concentration −7.0): 93% | Percent Growth (LOX IMVI; Log10 Concentration −8.0): 96% | GI50 (OVCAR-3): 1.69 µM | TGI (OVCAR-3): 4.03E−6 | Percent Growth (OVCAR-3; Log10 Concentration −4.0): −99% | Percent Growth (OVCAR-3; Log10 Concentration −5.0): −52% | Percent Growth (OVCAR-3; Log10 Concentration −6.0): 80% | Percent Growth (OVCAR-3; Log10 Concentration −7.0): 95% | Percent Growth (OVCAR-3; Log10 Concentration −8.0): 101% | GI50 (UACC-257): 2.34 µM | TGI (UACC-257): 1.02E−5 | Percent Growth (UACC-257; Log10 Concentration −4.0): −90% | Percent Growth (UACC-257; Log10 Concentration −5.0): 1% | Percent Growth (UACC-257; Log10 Concentration −6.0): 79% | Percent Growth (UACC-257; Log10 Concentration −7.0): 96% | Percent Growth (UACC-257; Log10 Concentration −8.0): 94% | TGI (U251): 2.66E−5 | Percent Growth (U251; Log10 Concentration −4.0): −99% | Percent Growth (U251; Log10 Concentration −5.0): 73% | Percent Growth (U251; Log10 Concentration −6.0): 92% | Percent Growth (U251; Log10 Concentration −7.0): 96% | Percent Growth (U251; Log10 Concentration −8.0): 96% | GI50 (NCI-H322M): 13 µM | TGI (NCI-H322M): 2.66E−5 | Percent Growth (NCI-H322M; Log10 Concentration −4.0): −92% | Percent Growth (NCI-H322M; Log10 Concentration −5.0): 68% | Percent Growth (NCI-H322M; Log10 Concentration −6.0): 102% | Percent Growth (NCI-H322M; Log10 Concentration −7.0): 99% | Percent Growth (NCI-H322M; Log10 Concentration −8.0): 96% | GI50 (K-562): 3.45 µM | TGI (K-562): 3.61E−5 | Percent Growth (K-562; Log10 Concentration −4.0): −10% | Percent Growth (K-562; Log10 Concentration −5.0): 13% | Percent Growth (K-562; Log10 Concentration −6.0): 93% | Percent Growth (K-562; Log10 Concentration −7.0): 95% | Percent Growth (K-562; Log10 Concentration −8.0): 104% | GI50 (A549/ATCC): 11.3 µM | TGI (A549/ATCC): 2.74E−5 | Percent Growth (A549/ATCC; Log10 Concentration −4.0): −73% | Percent Growth (A549/ATCC; Log10 Concentration −5.0): 57% | Percent Growth (A549/ATCC; Log10 Concentration −6.0): 93% | Percent Growth (A549/ATCC; Log10 Concentration −7.0): 97% | Percent Growth (A549/ATCC; Log10 Concentration −8.0): 98%
